Laboratory results from US10647671B2, “Promysalin analogues and methods of use thereof” (Temple University—Of The Commonwealth System of Higher …, priority 2016, dated 2020).
Read-outs that look alike come from different tables or passages of the source. Each block holds one molecule with its values, some of them ahead of it.

How the values were obtained:
P. aeruginosa PA01 = assay: IC50 assay (OD595, 24 h) against PA01; format: cell-based; conditions: Pseudomonas aeruginosa
Description: (§1) P. aeruginosa PA01, and PA14 were gifts from Prof. George O'Toole (Dartmouth Medical School). Bacterial cultures were grown from freezer stocks overnight (16-24 hr) with shaking at 37° C. in Tryptic Soy Broth (TSB) media (10 mL). Growth curves were obtained for PA01 and PA14 to determine the OD of each strain in exponential growth; OD readings at 595 nm were taken every 10 minutes for 6 hours in a plate reader at 37° C. with shaking and repeated six times. (see FIGS. 6A and 6B) Compounds were serially diluted in sterile DI water from a stock solution (1 mM in 10% DMSO/90% H2O) to yield twenty-four test concentrations. Overnight cultures were diluted 1:100 in 5 mL fresh media and grown with shaking at 37° C. to an OD of 0.32 (see growth curves). Bacteria were diluted to a concentration of 0.004 using the following equation: (x μL O/N)(OD reading)=(0.004)(volume needed) and 100 μL was inoculated into each well of a flat-bottom 96-well plate (Corning 3370) containing 100 μL of compound solution. Plates were incubated statically at 37° C. for 24 hours, upon which time the OD at 595 nm was measured using a plate reader. IC50 values were calculated by fitting the OD readings vs. concentration with a 4 parameter logistic model. Controls were prepared by serially diluting a 10% DMSO/90% H2O the same as the compound stock solution. Compounds were tested in triplicate from separate O/N cultures and results averaged.

[1] = tested on: P. aeruginosa strains PAO1 and PA14; assay: Inhibitory activity against P. aeruginosa, strain not separated in text; format: cell-based, Pseudomonas aeruginosa; conditions: for inhibitory activity against P. aeruginosa, in words (SAR): compared with promysalin; for IC50: Pseudomonas aeruginosa, PAO1 and PA14, read-out: IC50 / inactive up to concentration
Description: (§2) P. aeruginosa PA01, and PA14 were gifts from Prof. George O'Toole (Dartmouth Medical School). Bacterial cultures were grown from freezer stocks overnight (16-24 hr) with shaking at 37° C. in Tryptic Soy Broth (TSB) media (10 mL). Growth curves were obtained for PA01 and PA14 to determine the OD of each strain in exponential growth; OD readings at 595 nm were taken every 10 minutes for 6 hours in a plate reader at 37° C. with shaking and repeated six times. (see FIGS. 6A and 6B)
as §1, with “Compounds” for “P. aeruginosa PA01, and PA14 were gifts from Prof. George O'Toole (Dartmouth Medical School). Bacterial cultures were grown from freezer stocks overnight (16-24 hr) with shaking at 37° C. in Tryptic Soy Broth (TSB) media (10 mL). Growth curves were obtained for PA01 and PA14 to determine the OD of each strain in exponential growth; OD readings at 595 nm were taken every 10 minutes for 6 hours in a plate reader at 37° C. with shaking and repeated six times. (see FIGS. 6A and 6B) Compounds”
With a library of sixteen analogs in hand, all of the compounds were evaluated for inhibitory activity against P. aeruginosa strains PAO1 and PA14. […] The inhibition data supported our initial hypothesis that the conformation of promysalin is exquisitely linked to its inhibition of PA. Of our modifications to the proline structure, fluorination (9)—being the smallest steric perturbation, was the only compound with equipotency to that of promysalin.

P. aeruginosa PA14 = assay: IC50 assay (OD595, 24 h) against PA14; format: cell-based, Pseudomonas aeruginosa; conditions: for IC50: Pseudomonas aeruginosa
Description: as §2
as §1, with “Compounds” for “P. aeruginosa PA01, and PA14 were gifts from Prof. George O'Toole (Dartmouth Medical School). Bacterial cultures were grown from freezer stocks overnight (16-24 hr) with shaking at 37° C. in Tryptic Soy Broth (TSB) media (10 mL). Growth curves were obtained for PA01 and PA14 to determine the OD of each strain in exponential growth; OD readings at 595 nm were taken every 10 minutes for 6 hours in a plate reader at 37° C. with shaking and repeated six times. (see FIGS. 6A and 6B) Compounds”
Compounds were serially diluted in sterile DI water from a stock solution (10% DMSO/H2O) yielding 24 test concentrations. Bacteria were diluted to a final concentration of 0.004 from regrown overnight culture according to the following equation: (xμL bacterial culture)(OD reading)=(0.004)(total volume needed) and 100 μL was inoculated into each well of a flat-bottom 96-well plate (Corning 3370) containing 100 μL of compound solution. Plates were incubated statically at 37° C. for 24 hours upon which time OD at 595 nm was measured using a plate reader (Spectra Max 190). IC50 values were calculated using OD values and concentrations with a 4-parameter logistic model. Control experiments used a 10% DMSO/H2O stock serially diluted to the same 24 concentrations. Compounds were tested in triplicate from three independent overnight cultures.

[2] = average of EXPT 1-3, read-out: IC50 PA01 AVG
[3] = averages of three independent experiments, read-out: IC50 PA01
[4] = single trial 1, read-out: IC50 PA01 EXPT 1
[5] = single trial 2, read-out: IC50 PA01 EXPT 2
[6] = single trial 3, read-out: IC50 PA01 EXPT 3
[7] = average of EXPT 1-3, read-out: IC50 PA14 AVG
[8] = averages of three independent experiments, read-out: IC50 PA14
[9] = single trial 1, read-out: IC50 PA14 EXPT 1
[10] = single trial 2, read-out: IC50 PA14 EXPT 2
[11] = single trial 3, read-out: IC50 PA14 EXPT 3

- IC50 (P. aeruginosa PA01; [2]): 31.9 µM
- IC50 (P. aeruginosa PA01; [3]): 32 µM
- IC50 (P. aeruginosa PA01; [4]): 32.3 µM
- IC50 (P. aeruginosa PA01; [5]): 32.5 µM
- IC50 (P. aeruginosa PA01; [6]): 31.1 µM
- IC50 (P. aeruginosa PA14; [7]): 11.4 µM
- IC50 (P. aeruginosa PA14; [8]): 12 µM
- IC50 (P. aeruginosa PA14; [9]): 10.8 µM
- IC50 (P. aeruginosa PA14; [10]): 11.2 µM
- IC50 (P. aeruginosa PA14; [11]): 12.2 µM
SMILES: CCCCCC[C@H](CCCCC[C@@H](O)C(N)=O)OC(=O)[C@@H]1CC(C)=CN1C(=O)c1ccccc1O [compound 10, (7R,13R)-14-amino-13-hydroxy-14-oxotetradecan-7-yl (S)-1-(2-hydroxybenzoyl)-4-methyl-2,3-dihydro-1H-pyrrole-2-carboxylate]
- inhibitory activity against P. aeruginosa, in words (SAR) [1]: slightly tolerated

SMILES: CCCCCC[C@H](CCCCC[C@@H](O)C(N)=O)OC(=O)[C@@H]1CC[C@@H]2Oc3ccccc3C(=O)N21 (single isomer, unassigned) [2a]
- inhibitory activity against P. aeruginosa, in words (SAR) [1]: no biological activity

- IC50 (P. aeruginosa PA14; preliminary screening for probe design, read-out: IC50 in PA14): 0.218 µM
SMILES: C#CCNC(=O)[C@H](O)CCCCC[C@@H](CCCCCC)OC(=O)[C@@H]1CC=CN1C(=O)c1ccccc1O [(−)-S4, (7R,13R)-13-hydroxy-14-oxo-14-(prop-2-yn-1-ylamino)tetradecan-7-yl (S)-1-(2-hydroxybenzoyl)-2,3-dihydro-1H-pyrrole-2-carboxylate]
- activity relative to the natural product (P. aeruginosa PA14): three-fold less active

SMILES: CCCCCC[C@H](CCCCC[C@@H](O)C(N)=O)OC(=O)[C@@H]1C[C@@H](O)CN1C(=O)c1ccccc1O [compound 8, (1R,7R)-1-carbamoyl-1-hydroxytridecan-7-yl (2S,4R)-4-hydroxy-1-(2-hydroxybenzoyl)pyrrolidine-2-carboxylate]
- inhibitory activity against P. aeruginosa, in words (SAR) [1]: inactive

SMILES: CCCCCC[C@H](CCCCC[C@@H](O)C(N)=O)OC(=O)[C@@H]1CC=CN1C(=O)c1ccccc1[N+](=O)[O-] [compound 17, (7R,13R)-14-amino-13-hydroxy-14-oxotetradecan-7-yl (S)-1-(2-nitrobenzoyl)-2,3-dihydro-1H-pyrrole-2-carboxylate]
- inhibitory activity against P. aeruginosa, in words (SAR) [1]: largely unforgiving

SMILES: CCCCCC[C@H](CCCCC[C@@H](O)C(N)=O)OC(=O)[C@@H]1CC=CN1C(=O)c1cccc(O)c1 [compound 12, (7R,13R)-14-amino-13-hydroxy-14-oxotetradecan-7-yl (S)-1-(3-hydroxybenzoyl)-2,3-dihydro-1H-pyrrole-2-carboxylate]
- inhibitory activity against P. aeruginosa, in words (SAR) [1]: largely unforgiving

- IC50 [1]: > 250 µM
SMILES: COC(=O)[C@@H]1CC=CN1C(=O)c1ccccc1O [compound 5, Methyl (2S)-1-(2-hydroxybenzoyl)-2,3-dihydro-1H-pyrrole-2-carboxylate]

- IC50 [1]: > 250 µM
SMILES: CCCCCC[C@@H](O)CCCCC[C@@H](O)C(N)=O [compound 4, (2R,8R)-2,8-dihydroxytetradecanamide]

- IC50 (P. aeruginosa PA01; [2]): 111 µM
- IC50 (P. aeruginosa PA01; [3]): 111 µM
- IC50 (P. aeruginosa PA01; [4]): 113 µM
- IC50 (P. aeruginosa PA01; [5]): 98.9 µM
- IC50 (P. aeruginosa PA01; [6]): 121 µM
- IC50 (P. aeruginosa PA14; [7]): 28.3 µM
- IC50 (P. aeruginosa PA14; [8]): 28 µM
- IC50 (P. aeruginosa PA14; [9]): 24.3 µM
- IC50 (P. aeruginosa PA14; [10]): 27.1 µM
- IC50 (P. aeruginosa PA14; [11]): 33.7 µM
SMILES: CCCCCC[C@H](CCCCC[C@@H](O)C(N)=O)OC(=O)[C@@H]1CCCN1C(=O)c1ccccc1O [compound 6, (1R,7R)-1-carbamoyl-1-hydroxytridecan-7-yl (2S)-1-(2-hydroxybenzoyl)pyrrolidine-2-carboxylate]
- inhibitory activity against P. aeruginosa, in words (SAR) [1]: modest activity

SMILES: CCCCCC[C@H](CCCCC[C@@H](O)C(N)=O)OC(=O)[C@@H]1CC[C@H]2Oc3ccccc3C(=O)N21 (single isomer, unassigned) [2b]
- inhibitory activity against P. aeruginosa, in words (SAR) [1]: no biological activity

SMILES: C#CCCC1(CCNC(=O)[C@H](O)CCCCC[C@@H](CCCCCC)OC(=O)[C@@H]2CC=CN2C(=O)c2ccccc2)N=N1 [(−)-S12, (7R,13R)-14-((2-(3-(but-3-yn-1-yl)-3H-diazirin-3-yl)ethyl)amino)-13-hydroxy-14-oxotetradecan-7-yl (S)-1-benzoyl-2,3-dihydro-1H-pyrrole-2-carboxylate]
- inhibitory activity against P. aeruginosa, in words (SAR) [1]: inactive

- IC50 (P. aeruginosa PA01; [2]): 56.7 µM
- IC50 (P. aeruginosa PA01; [3]): 57 µM
- IC50 (P. aeruginosa PA01; [4]): 59.3 µM
- IC50 (P. aeruginosa PA01; [5]): 55.4 µM
- IC50 (P. aeruginosa PA01; [6]): 55.5 µM
- IC50 (P. aeruginosa PA14; [7]): 6.74 µM
- IC50 (P. aeruginosa PA14; [8]): 6.7 µM
- IC50 (P. aeruginosa PA14; [9]): 6.98 µM
- IC50 (P. aeruginosa PA14; [10]): 5.86 µM
- IC50 (P. aeruginosa PA14; [11]): 7.39 µM
SMILES: CCCCCC[C@H](CCCCC[C@@H](O)C(N)=O)OC(=O)[C@@H]1CC=CN1C(=O)c1ccccc1OC [compound 11, (1R,7R)-1-carbamoyl-1-hydroxytridecan-7-yl (2S)-1-(2-methoxybenzoyl)-2,3-dihydro-1H-pyrrole-2-carboxylate]
- inhibitory activity against P. aeruginosa, in words (SAR) [1]: an order of magnitude less potency

SMILES: CCCCCC[C@H](CCCCC[C@@H](O)C(N)=O)OC(=O)[C@@H]1CC=CN1C(=O)c1ccccc1 [compound 14, (1R,7R)-1-carbamoyl-1-hydroxytridecan-7-yl (2S)-1-benzoyl-2,3-dihydro-1H-pyrrole-2-carboxylate]
- inhibitory activity against P. aeruginosa, in words (SAR) [1]: largely unforgiving

SMILES: CCCCCC[C@H](CCCCC[C@@H](O)C(N)=O)OC(=O)[C@@H]1CC=CN1C(=O)c1c(O)cccc1OC [compound 15, (7R,13R)-14-amino-13-hydroxy-14-oxotetradecan-7-yl (S)-1-(2-hydroxy-6-methoxybenzoyl)-2,3-dihydro-1H-pyrrole-2-carboxylate]
- inhibitory activity against P. aeruginosa, in words (SAR) [1]: not tolerated

SMILES: CCCCCC[C@H](CCCCC[C@@H](O)C(N)=O)OC(=O)[C@@H]1CC=CN1C(=O)c1cc(OC)c(OC)c(OC)c1 [compound 16, (1R,7R)-1-carbamoyl-1-hydroxytridecan-7-yl (2S)-1-(3,4,5-trimethoxybenzoyl)-2,3-dihydro-1H-pyrrole-2-carboxylate]
- inhibitory activity against P. aeruginosa, in words (SAR) [1]: not tolerated

SMILES: CCCCCC[C@H](CCCCC[C@@H](O)C(N)=O)OC(=O)[C@@H]1CCCCN1C(=O)c1ccccc1O [compound 7, (1R,7R)-1-carbamoyl-1-hydroxytridecan-7-yl (2S)-1-(2-hydroxybenzoyl)piperidine-2-carboxylate]
- inhibitory activity against P. aeruginosa, in words (SAR) [1]: inactive

- IC50 (P. aeruginosa PA14; read-out: IC50 in PA14): 1.7 µM
SMILES: C#CCCC1(CCNC(=O)[C@H](O)CCCCC[C@@H](CCCCCC)OC(=O)[C@@H]2CC=CN2C(=O)c2ccccc2O)N=N1 [(−)-2, (7R,13R)-14-((2-(3-(but-3-yn-1-yl)-3H-diazirin-3-yl)ethyl)amino)-13-hydroxy-14-oxotetradecan-7-yl (S)-1-(2-hydroxybenzoyl)-2,3-dihydro-1H-pyrrole-2-carboxylate]
- less active than promysalin [1]: ~10 ×

SMILES: CCCCCC[C@H](CCCCC[C@@H](O)C(N)=O)OC(=O)[C@@H]1CC=CN1C(=O)c1ccc(O)cc1 [compound 13, (1R,7R)-1-carbamoyl-1-hydroxytridecan-7-yl (2S)-1-(4-hydroxybenzoyl)-2,3-dihydro-1H-pyrrole-2-carboxylate]
- inhibitory activity against P. aeruginosa, in words (SAR) [1]: largely unforgiving
